The results in this text go back to patent US9220771B2, “Peptide for use in the treatment of breast cancer and/or bone metastases” (MERCK PATENT GMBH, priority 2010, dated 2015).

For data set [1], the system named is Patients With Newly Diagnosed Glioblastoma (GBM). Put plainly: Phase I/IIa trial of Cilengitide and temozolomide with concomitant radiotherapy. The format is in vivo, human. How it is done: Purpose: To evaluate safety, toxicity, and efficacy of the combination of the cyclic RGD pentapeptide Cilengitide (=cyclo-(Arg-Gly-Asp-DPhe-NMe-Val)), an inhibitor of integrins αvβ3 and αvβ5, in addition to standard temozolomide (TMZ) and radiotherapy (RT).
Patients and methods: Fifty-two pts (PS 0-1: 92%, 2: 8%; median age 57 yrs) after biopsy (n=9/17%) or tumor resection (n=43/83%) were treated with standard TMZ/RT (Stupp et al. NEJM 2005). In addition Cilengitide (500 mg i.v., 2×/week) was started one week before TMZ/RT and given throughout for the duration of chemotherapy or until progression. Primary endpoint was progression free survival rate at 6 months (target: 65%). Patients were followed with MRI every 2 months. Histopathologic diagnosis and MRI imaging were independently reviewed, MGMT promotor methylation status was assessed in 45 (86.5%) pts.

Data set [2] relates to MDA-MB-231 breast cancer bone metastases. Description: Experimental breast cancer bone metastases in nude rats: volumes of osteolytic lesions and soft tissue components by VCT and MRI. The format is in vivo, nude rats (RNU strain). The note with it: for mean relative volume of soft tissue components (STC), increase compared to initial value at day 30 / mean relative volume of osteolytic lesions (OL), increase compared to initial value at day 30: cilengitide 75 mg/kg i.p. five times per week from day 30; for mean relative volume of soft tissue components (STC), increase compared to initial value at day 30: MRI. How it is done:
For this purpose, nude rats bearing established breast cancer bone metastases are treated with cilengitide, a small molecule inhibitor of αvβ3 and αvβ5 integrins (75 mg/kg, five days per week; n=12 rats) and compared to vehicle treated control rats (n=12). In a longitudinal study, conventional magnetic resonance imaging (MRI) and flat panel volumetric computed tomography (VCT) are used to assess the volume of the soft tissue tumor and osteolysis, respectively, and dynamic contrastenhanced (DCE-) MRI is performed to determine functional parameters of the tumor vasculature reflecting blood volume and blood vessel permeability.
Nude rats (RNU strain) are obtained from Harlan-Winkelmann GmbH (Borchen, Germany) at the age of six weeks and housed in a specific pathogen-free environment in a mini barrier system of the central animal facility. Animals are kept under controlled conditions (21±2° C. room temperature, 60% humidity, 12 h light-dark rhythm) and offered autoclaved food and water ad libitum. Sub-confluent MDAMB- 231 cells are harvested using 0.05% Trypsin-EDTA (Gibco®; Invitrogen, Karlsruhe, Germany) counted on a Neubauer's chamber and resuspended in RPMI-1640 to a final concentration of 10^5 cells in 200 μl. Rats are anesthetized using a mixture of nitrous oxide (1 l/min), oxygen (0.5 l/min) and isoflurane (1.5 vol. %). Arterial branches of the right hind leg are dissected and 10^5 cells injected into the superficial epigastric artery as described previously.^28 Bone metastases established and are observed exclusively in the femur, tibia and fibula of the right hind leg. 30 days after cancer cell transplantation, rats (n=24) are randomly divided into two groups, one group receiving the cyclic RGD-peptide inhibitor of αvβ3/αvβ5 integrins (cilengitide, EMD 121974^14, 17, 29; Merck, Darmstadt, Germany) intraperitoneally five times per week in isotonic saline (75 mg/kg; n=12 rats) and the other, sham-treated group, serving as a control (n=12 rats). The observation period of all animals is 55 days and no rat in the study dies ahead of schedule.
After the inoculation of cancer cells each rat is imaged at days 30, 35, 45 and 55 using (i) a flat-panel equipped volumetric computed tomograph (Volume CT, Siemens, Germany) and (ii) a 1.5T clinical magnetic resonance scanner (Symphony, Siemens, Erlangen, Germany) equipped with a home-built receive-transmit coil (cylindrical volume resonator with an inner diameter of 83 mm and a usable length of 120 mm). Prior to in vivo imaging with VCT and MRI, rats aree anesthetized with nitrous oxide, oxygen and isoflurane as described above.
VCT imaging is obtained using the following parameters: tube voltage 80 kV, tube current 50 mA, scan time 51 s, rotation speed 10 s, frames per second 120, matrix 512×512, and slice thickness 0.2 mm. Image reconstructions are performed using a modified FDK (Feldkamp Davis Kress) cone beam reconstruction algorithm (kernel H80a; Afra, Erlangen, Germany).
T2-weighted imaging is performed using a turbo spin echo sequence (orientation axial, TR 3240 ms, TE 81 ms, matrix 152×256, FOV 90×53.4 mm^2, slice thickness 1.5 mm, 3 averages, scan time 3 min 40 s). For dynamic contrast-enhanced MRI, a saturation recovery turbo flash sequence through the largest diameter of the tumor (orientation axial, TR 373 ms, TE 1.86 ms, matrix 192×144, FOV 130×97.5 mm, slice thickness 5 mm, measurements 512, averages 1, scan time 6 min 55 s) is used. After 20 s baseline, 0.1 mmol/kg Gd-DTPA (Magnevist; Bayer Schering Pharma, Berlin, Germany) is intravenously infused for a time period of 10 s.
Unenhanced VCT images and MRI-acquired T2-weighted images are analyzed using the Medical Imaging Interaction Toolkit (MITK, Heidelberg, Germany) to determine volumes of osteolytic lesions and soft tissue components, respectively. […]

Data set [3] relates to U251 human glioblastoma cells. Description: Rat orthotopic glioblastoma model, radiotherapy and cilengitide scheduling, survival. The data set is classed as in vivo, NIH rnu nude rats. The settings on record: t-4 and t-8 h groups, cilengitide 4 mg/kg + 25 Gy. How it is done:
NIH rnu nude rats are anaesthetized, restrained, and injected intracerebrally 1 mm retro orbitally, 3 mm to the right of the bregma and at a depth of 2.5 mm with 5×10E5 U251 human glioblastoma cells suspended in 10 ul of culture medium, using a #2701 Hamilton syringe fitted with a 26 gauge needle, essentially as previously described (Engebraaten et al., 1999). After 14 days, cilengitide (4 mg/kg) is given as an intraperitoneal bolus in PBS, at various time (8 h, 4 h, 2 h, 1 h) prior to a single treatment with single, collimated, dorsal-ventral beam of 6 MV x-rays, so that 95-100% of the central axis dose of 25 Gy hit the tumor volume (Kim et al., 1999). Each of the 7 subsequent days the animals also received an identical i.p. bolus of cilengitide. The animals are maintained under ad libitum food and drink until they become moribund, or are sampled for tissue analysis (in the t-4 and t-8 h groups, where the animals are healthy past 230 days post tumor injection). A Kaplan-Meier survival curve is calculated and plotted (FIG. 7) from the raw data (Table 2). All animals in the RT monotherapy group died by 120 d.

[4] abbreviates: Cilengitide 500 mg i.v. 2x/week with TMZ/RT, of 52 patients.

Regarding `CC(C)[C@H]1C(=O)N[C@@H](CCCN=C(N)N)C(=O)NCC(=O)N[C@@H](CC(=O)O)C(=O)N[C@H](Cc2ccccc2)C(=O)N1C` [Cilengitide, cyclo-(Arg-Gly-Asp-DPhe-NMeVal)], the “treatment related non-hematologic grade 3 toxicities” value in data set [1] (Cilengitide 500 mg i.v. 2x/week with TMZ/RT, 3/52 patients) turned out to be 5.7%. Besides, the “grade 3 constitutional symptoms (asthenia, fatigue, anorexia)” value in data set [1] (setting [4]) came out at 3 n. In addition, in data set [1] (setting [4]), the “grade 3 deep venous thrombosis and pulmonary embolism” value is 1 n. Further, the “grade 3 elevated liver function tests” value in data set [1] (setting [4]) is on record as 1 n. Also, the “tolerability of the combination” value in data set [1] (Cilengitide and TMZ/RT) is recorded as “well tolerated”. In addition, the “mean relative volume of soft tissue components (STC), increase compared to initial value at day 30” value in data set [2] (day 35) is listed as 2.2 fold; in data set [2] (day 45, p<0.05 vs control) it was 4.9 fold; in data set [2] (day 55, p<0.01 vs control), 6.3 fold. The “mean relative volume of osteolytic lesions (OL), increase compared to initial value at day 30” value in data set [2] (day 35, VCT) is 1.5 fold; in data set [2] (day 45, VCT, p<0.05 vs control), 2.4 fold; in data set [2] (day 55, VCT, p<0.01 vs control), 3.5 fold. Also, the “rats showing new bone formation in the osteolytic lesion” value in data set [2] (treatment group (three of 12 rats), cilengitide 75 mg/kg, VCT, not seen in controls) came out at 25%. For the same compound, the “time animals are healthy post tumor injection” value in data set [3] is reported as over 230 days.
